Earlier results in PubChem BioAssay AID1259409 (Chemical Carcinogenesis Research Information System (CCRIS), 2018).

Tested on: rodent chemically induced tumor inhibition, incidence and multiplicity
Assay: CCRIS tumor inhibitor studies
Details: for outcome: Carcinogen: NONE, Strain/Sex: APC/MIN/MALE

## NCCCC(N)(C(=O)O)C(F)F (centres undefined)
Carcinogen: N-METHYL-N-NITROSOUREA, 684-93-5, Dose [Inhibitor]: 0.5 ML OF 2% AGENT IN 0.9% SALINE SOLUTION TWICE IN WK 1 THEN ONCE 2 HR POST CARCINOGEN TREATMENT THEN TWICE IN WK 2 (ST, Route [Inhibitor]: INTRAVESICAL, Species: RAT, Strain/Sex: F344/MALE, Target Tissue: Type of Lesion: BLADDER: CARCINOMA, Dose [Carcinogen]: 0.25 MG IN 0.5 ML OF 0.9% SALINE SOLUTION ONCE, Promoter: URINE
  tumour outcome (control, treated, inhibition, significance): 31/36 (86%), 27/38 (71%), 17%, not calculated
Carcinogen: N-METHYL-N-NITROSOUREA, 684-93-5, Dose [Inhibitor]: 2% IN URINE 2/WK FOR 30 WK BEGINNING 1 WK POST CARCINOGEN DOSE (STUDY DURATION: 35 WK), Route [Inhibitor]: INTRAVESICAL, Species: RAT, Strain/Sex: F344/MALE, Target Tissue: Type of Lesion: BLADDER: CARCINOMA, Dose [Carcinogen]: 0.25 MG IN 0.5 ML OF 0.9% SALINE SOLUTION ONCE, Promoter: URINE
  tumour outcome (control, treated, inhibition, significance): 25/36 (69%), 13/35 (37%), 46%, p<0.025
Carcinogen: N-METHYL-N-NITROSOUREA, 684-93-5, Dose [Inhibitor]: 2% IN URINE 2/WK FOR 41 WK BEGINNING 1 WK POST CARCINOGEN DOSE (STUDY DURATION: 50 WK), Route [Inhibitor]: INTRAVESICAL, Species: RAT, Strain/Sex: F344/MALE, Target Tissue: Type of Lesion: BLADDER: CARCINOMA, Dose [Carcinogen]: 0.25 MG IN 0.5 ML OF 0.9% SALINE SOLUTION ONCE, Promoter: URINE
  tumour outcome (control, treated, inhibition, significance): 31/36 (86%), 30/38 (79%), 8%, not calculated
Dose [Inhibitor]: 0.5% IN DRINKING WATER FOR 2 MONTHS (STUDY DURATION: 2 MONTHS), Route [Inhibitor]: ORAL, Species: MOUSE, Target Tissue: Type of Lesion: DISTAL SMALL INTESTINE: TUMOR, Promoter: NONE
  outcome: 10.38, 3.67, 65%, p<0.001
Dose [Inhibitor]: 0.5% IN DRINKING WATER FOR 2 MONTHS (STUDY DURATION: 2 MONTHS), Route [Inhibitor]: ORAL, Species: MOUSE, Target Tissue: Type of Lesion: MIDDLE SMALL INTESTINE: TUMOR, Promoter: NONE
  outcome: 23.75, 19.80, 17%, not significant
Dose [Inhibitor]: 0.5% IN DRINKING WATER FOR 2 MONTHS (STUDY DURATION: 2 MONTHS), Route [Inhibitor]: ORAL, Species: MOUSE, Target Tissue: Type of Lesion: PROXIMAL SMALL INTESTINE: TUMOR, Promoter: NONE
  outcome: 7.63, 6.40, 16%, not significant
Dose [Inhibitor]: 1.0% IN DRINKING WATER FOR 2 MONTHS (STUDY DURATION: 2 MONTHS), Route [Inhibitor]: ORAL, Species: MOUSE, Target Tissue: Type of Lesion: DISTAL SMALL INTESTINE: TUMOR, Promoter: NONE
  outcome: 10.38, 1.73, 83%, p<0.001
Dose [Inhibitor]: 1.0% IN DRINKING WATER FOR 2 MONTHS (STUDY DURATION: 2 MONTHS), Route [Inhibitor]: ORAL, Species: MOUSE, Target Tissue: Type of Lesion: MIDDLE SMALL INTESTINE: TUMOR, Promoter: NONE
  outcome: 23.75, 13.80, 42%,p<0.01
Carcinogen: UV-A (20%), UV-B (80%) (WESTINGHOUSE FS320 SUNLAMP IN 280-400 NM), Dose [Inhibitor]: 0, 0.4% IN DRINKING WATER FOR 8 WK BEGINNING 22 WK POST CARCINOGEN FIRST DOSE (STUDY DURATION: 30 WK), Route [Inhibitor]: ORAL, Species: MOUSE, Strain/Sex: SKH:HR-1-HBR/FEMALE, Target Tissue: Type of Lesion: SKIN: TUMOR, Dose [Carcinogen]: 90 MJ/CM2 3 TIMES/WK, DOSE INCREASED BY 10% UNTIL REACHED 175 MJ/CM^2, BEGINNING 2 D POST AGENT DOSE, TREATMENT WS STOPP, Promoter: NONE
  tumour outcome (control, treated, inhibition, significance): ?/? (100%), ?/? (95%), 5%, data presented graphically, not calculated
Carcinogen: UV-A (20%), UV-B (80%) (WESTINGHOUSE FS320 SUNLAMP IN 280-400 NM), Dose [Inhibitor]: 0, 0.4% IN DRINKING WATER FOR 18 WK BEGINNING 12 WK POST CARCINOGEN FIRST DOSE (STUDY DURATION: 30 WK), Route [Inhibitor]: ORAL, Species: MOUSE, Strain/Sex: SKH:HR-1-HBR/FEMALE, Target Tissue: Type of Lesion: SKIN: TUMOR, Dose [Carcinogen]: 90 MJ/CM2 3 TIMES/WK, DOSE INCREASED BY 10% UNTIL REACHED 175 MJ/CM^2, BEGINNING 2 D POST AGENT DOSE, TREATMENT WS STOPP, Promoter: NONE
  tumour outcome (control, treated, inhibition, significance): ?/? (100%), ?/? (100%), 0%, data presented graphically, not calculated
Carcinogen: UV-A (20%), UV-B (80%) (WESTINGHOUSE FS320 SUNLAMP IN 280-400 NM), Dose [Inhibitor]: 0, 0.4% IN DRINKING WATER FOR DURATION OF STUDY (STUDY DURATION: 30 WK), Route [Inhibitor]: ORAL, Species: MOUSE, Strain/Sex: SKH:HR-1-HBR/FEMALE, Target Tissue: Type of Lesion: SKIN: TUMOR, Dose [Carcinogen]: 90 MJ/CM2 3 TIMES/WK, DOSE INCREASED BY 10% UNTIL REACHED 175 MJ/CM^2, BEGINNING 2 D POST AGENT DOSE, TREATMENT WS STOPP, Promoter: NONE
  tumour outcome (control, treated, inhibition, significance): ?/? (100%), ?/? (73%), 27%, data presented graphically, not calculated
Carcinogen: UVB IRRADIATION, Dose [Inhibitor]: 0, 1% IN DRINKING WATER FOR DURATION OF STUDY BEGINNING 3 WK PRIOR TO CARCINOGEN TREATMENT (STUDY DURATION: 36 WK), Route [Inhibitor]: ORAL, Species: MOUSE, Strain/Sex: BALB/FEMALE, Target Tissue: Type of Lesion: SKIN: TUMOR, Dose [Carcinogen]: 1273 KJM2 TOTAL DOSE ADMINISTERED IN 30 MIN TREATMENTS 5 D/WK, Promoter: NONE USED
  tumour outcome (control, treated, inhibition, significance): 38%, 9%, 76%, p=0.025
Dose [Inhibitor]: 0, 2% IN DRINKING WATER FOR 3 WK THEN REDUCED TO 1% FOR DURATION OF STUDY (STUDY DURATION: 9 MO), Route [Inhibitor]: ORAL, Species: RAT, Strain/Sex: F344/MALE, Target Tissue: Type of Lesion: LIVER: HEPATOCELLULAR CARCINOMA, Dose [Carcinogen]: 25 UG IN 0.2 ML DMSO 5 D/WK FOR 4 WK, Promoter: NONE USED
  tumour outcome (control, treated, inhibition, significance): 40%, 16%, 60%, p<0.01
Dose [Inhibitor]: 0, 2% IN DRINKING WATER FOR 3 WK THEN REDUCED TO 1% FOR DURATION OF STUDY ADMINISTERED TO RATS MAINTAINED ON CHOLINE-DEF, Route [Inhibitor]: ORAL, Species: RAT, Strain/Sex: F344/MALE, Target Tissue: Type of Lesion: LIVER: HEPATOCELLULAR CARCINOMA, Dose [Carcinogen]: 25 UG IN 0.2 ML DMSO 5 D/WK FOR 4 WK, Promoter: NONE USED
  tumour outcome (control, treated, inhibition, significance): 71%, 28%, 61%, not calculated
